Assay results taken from paper PMC4414177, “A novel orally active water-soluble inhibitor of human glutathione transferase exerts a potent and selective antitumor activity against human melanoma xenografts” (Oncotarget, 2015).
Converted amounts (≈) assume the structure as drawn.

Tests used:
[1] = Solubility limits in aqueous buffers; assay type: physicochemical; conditions: thermodynamic from solid
From the text: The solutions obtained were separated from any undissolved matter by centrifugation at 15,000 g and evaluated for drug concentration by recording compound absorbance at 425 nm, using molar extinction coefficients calculated at the same wavelength with diluted standard solutions, prepared in the same matrices.

GSTP1-1 [2] = biological target: T1, GSTP1-1 (Homo sapiens, UniProt P09211); assay: Inhibition of GSTP1-1 conjugation activity; assay type: biochemical
T1 construct: made in house; host or cells: Escherichia coli
Description: (§1) Human GSTM2-2, GSTP1-1, JNK1a2 and TRAF2 were expressed in Escherichia coli and purified as previously described; protein concentration was determined using the Lowry colorimetric assay. Unless specified otherwise, all chemicals were purchased from Sigma-Aldrich S.r.l. (Milan, Italy).
GST activity was determined spectrophotometrically at 340 nm (ε = 9,600 M^−1 cm^−1), as previously reported. […] Fifty percent inhibitory concentration (IC50) values were calculated by fitting the data to Equation 1, where ν is the percentage of the saturated binding sites; [P]t is the total GST concentration and [L]t is the total inhibitor concentration, assuming a 1:1 interaction stoichiometry between the inhibitor and one GST subunit, as well as that the binding sites are equal and independent.

[3] = Spontaneous reactivity with GSH (UV-visible spectra); assay type: physicochemical; conditions: 40 μM compound, 1 mM GSH, 0.1 M potassium phosphate buffer pH 6.5, 25°C, within 1 h
Description: The spontaneous reactivity of the NBDs with GSH was determined at 25°C by recording the UV-visible spectrum of each compound (40 μM) incubated with 1 mM GSH, in 0.1 M potassium phosphate buffer, pH 6.5, at different time points.

GSTM2-2 = biological target: T2, GSTM2-2 (Homo sapiens, UniProt P28161); assay: Inhibition of GSTM2-2 conjugation activity; assay type: biochemical; conditions: GSTM2-2 5 nM
T2 construct: made in house; host or cells: Escherichia coli
T2 sequence (P28161 1-218): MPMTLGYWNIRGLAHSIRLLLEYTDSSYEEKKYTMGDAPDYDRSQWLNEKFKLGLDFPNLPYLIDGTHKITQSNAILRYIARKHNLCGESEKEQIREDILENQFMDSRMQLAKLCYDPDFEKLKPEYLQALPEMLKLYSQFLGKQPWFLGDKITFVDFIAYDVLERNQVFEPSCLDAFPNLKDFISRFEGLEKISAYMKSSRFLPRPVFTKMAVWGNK
Description: as §1
GST activity was determined spectrophotometrically at 340 nm (ε = 9,600 M^−1 cm^−1), as previously reported. Inhibition experiments were performed by measuring GSTP1-1 (20 nM) or GSTM2-2 (5 nM) activities in the presence of various amounts of the selected NBD derivative (from 0.1 to 20 μM with GSTP1-1, and from 0.005 and 1 μM with GSTM2-2). Fifty percent inhibitory concentration (IC50) values were calculated by fitting the data to Equation 1, where ν is the percentage of the saturated binding sites; [P]t is the total GST concentration and [L]t is the total inhibitor concentration, assuming a 1:1 interaction stoichiometry between the inhibitor and one GST subunit, as well as that the binding sites are equal and independent.

GSTP1-1 [4] = biological target: T1, GSTP1-1; assay: Sigma complex formation in the GSTP1-1 active site; assay type: biochemical; conditions: 40 μM compound, 40 μM GSTP1-1, 1 mM GSH, pH 6.5, 25°C
Description: as §1
The ability of GSTP1-1 to stabilize the intermediate σ-complex formed between GSH and the compounds, was evaluated by recording the spectrum of each molecule (40 μM), in 0.1 M potassium phosphate buffer, pH 6.5, before and after the addition of a stoichiometric amount of GSTP1-1 and 1 mM GSH.

SK23-MEL = assay: Cell growth inhibition, SRB assay; assay type: cell-based; conditions: Homo sapiens, 48 h
Description: (§2) The IC50 values for each compound were then evaluated by the SRB assay.

G-361 = assay: Cell growth inhibition, SRB assay; assay type: cell-based; conditions: Homo sapiens, G-361, 48 h
Description: as §2

MALME-3M = assay: Cell growth inhibition, SRB assay; assay type: cell-based; conditions: Homo sapiens, 48 h
Description: as §2

IST-MEL-1 = assay: Cell growth inhibition, SRB assay; assay type: cell-based; conditions: Homo sapiens, IST-MEL-1, 48 h
Description: as §2

A375 = assay: Cell growth inhibition, SRB assay; assay type: cell-based; conditions: Homo sapiens, A-375, A375, 48 h
Description: as §2

A375 cells [5] = assay: Caspase-3 activity in cell lysates; assay type: cell-based, human; conditions: A375, pretreatment with SP600125 20 μM, 24 hrs exposure to MC3181
Description: Apoptosis was confirmed by measuring caspase-3 activity, at 25°C, in total cell lysates, using the model fluorescent peptide substrate N-Acetyl-Asp-Glu-Val-Asp-7-amido-4-trifluoromethylcoumarin (Ac-DEVD-AFC). […] Caspase activity was expressed as change in fluorescence per min, per 10^6 cells.

A375 cells [6] = assay: Cell cycle analysis (PI, flow cytometry); assay type: cell-based, human; conditions: A375, pretreatment with SP600125 20 μM, 24 hrs exposure to MC3181
Description: A375 and SK23-MEL cells, were fixed with 70% ethanol overnight, stained with PI staining buffer ([…] and 1% Triton X-100) and analyzed by a FACSCalibur (BD Bioscence, San Jose, CA, USA). The percentage of early apoptotic, late apoptotic, and necrotic cells was determined by simultaneous staining of cells with PI (2 μg/ml) and Annexin V-FITC (0.5 μg/ml) (Sigma Aldrich), according to manufacturer's protocol. Flow cytometric data were analyzed by the FlowJo 8.8.6 software (Tree Stare, Inc, Ashland, OR, USA).

[7] = system: mice bearing human tumor xenografts; assay: Toxicity in tumor-bearing mice (net BW variation, macroscopic autopsy); assay type: in vivo; conditions: during treatment, MC3181 8 mg/kg/day, TMZ 100 mg/kg/day i.p.
Description: Toxicity was also evaluated in tumor-bearing mice on the basis of macroscopic autopsy findings, mainly in terms of alteration to the size and color of vital organs, and net BW reduction. The percentage of net BW variation, between the first day of treatment and sacrifice day (or day of interest), was evaluated according to the following equation: % net BW variation =net BW at observation day −net BW at first day of treatment/net BW at first day of treatment ×100 (Eq. 2)

A375 human melanoma = assay: A375 fragment xenograft model, antitumor efficacy; assay type: in vivo, mice; conditions: MC3181 i.v. 8mg/kg/d q1dx5 three weeks
Description: With regard to the in vivo fragment tumor model, A375 cells were injected (1×10^7) subcutaneously (s.c.) into the right flank of an athymic Nude-Foxn1nu female mouse, and the established primary tumor was then removed and cut into fragments (2–3 mm diameter) and implanted s.c. into recipient mice. Animals were randomly divided in groups of 7 mice and treatment was initiated when a tumor volume of 0.12 ± 0.01 cm^3 (mean ± SEM) was reached.
The reference drug temozolomide, dissolved in DMSO/PBS 1:1 to a final concentration of 10 mg/ml, was administered i.p. q1dx5 at a dose of 100mg/kg/day.
Primary tumor growth was determined for all animals by caliper measurement (minor and major axis length), three times per week, until they were sacrificed. Primary tumor volume was determined using the following equation: V (cm^3)=(α^2×β)/2 (Eq. 3)
The efficacy of the treatment was also analyzed by calculation of the percentage of Increase in Life Span (% ILS), since this analysis gives an evidence of clinical potency. Survival endpoint for each animal was fixed at the day when tumor volume reached 1.0 cm^3 (A375) or 0.4 cm^3 (SK23-MEL and G-361), and data were used to plot the relative Kaplan-Meier curves. Treatment efficacy was then evaluated by comparing the Median Survival Time (MST) of treated group with the MST of control group, and expressed as percentage of ILS: % ILS=[100×(MSTtreated group)/(MSTcontrol group)]−100 (Eq. 4)
Treatment was considered effective when % ILS > 20%.

T1 sequence (P09211 2-210 limits assumed): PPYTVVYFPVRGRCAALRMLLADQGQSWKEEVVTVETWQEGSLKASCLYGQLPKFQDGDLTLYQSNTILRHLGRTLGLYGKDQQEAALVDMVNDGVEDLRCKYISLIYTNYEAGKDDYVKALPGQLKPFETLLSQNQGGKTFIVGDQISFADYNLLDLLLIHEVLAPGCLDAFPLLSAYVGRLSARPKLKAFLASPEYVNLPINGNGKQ

Q: For `O=[N+]([O-])c1ccc(SCCOCCO)c2nonc12` [MC3165, 2-(2-((7-nitrobenzo[c][1,2,5]oxadiazol-4-yl)thio)ethoxy)ethan-1-ol], which solubility ([1]; potassium phosphate buffer, pH 7.4, 0.1 M K-Phosphate buffer) is on record?
A: The solubility was 2000 µM (≈ 571 µg/mL).

Q: What about the solubility ([1]; sodium acetate buffer, pH 2.0, 0.1 M Na-Acetate Buffer) of the same compound?
A: The solubility was 2000 µM (≈ 571 µg/mL).

Q: And the solubility ([1]; sodium acetate buffer, pH 5.0, 0.1 M Na-Acetate Buffer)?
A: Its solubility is 1900 µM (≈ 542 µg/mL).

Q: What about the “Selectivity Index IC50GSTP1-1/IC50GSTM2-2” value (GSTP1-1 [2]) of the same compound?
A: Its value is 78.

Q: What about the IC50 (GSTP1-1 [2]; GSTP1-1 20 nM) of the same compound?
A: The IC50 was 4000 ± 200 nM.

Q: And the “decrease of the absorbance value at 430 nm after addition of excess GSH” value [3]?
A: The value was “less than 15%”.

Q: What about the IC50 (GSTM2-2) of the same compound?
A: Its IC50 is 51 ± 8 nM.

Q: What about the “stability of the σ-complex, rank order” value (GSTP1-1 [4]) of the same compound?
A: The value was “NBDHEX > MC3181 > MC3165”.

Q: What does the source list for `O=[N+]([O-])c1ccc(SCCCCCCO)c2nonc12` [NBDHEX, 6-((7-nitrobenzo[c][1,2,5]oxadiazol-4-yl)thio)hexan-1-ol, reference compound]?
A: IC50 (SK23-MEL): 1190 ± 90 nM; IC50 (G-361): 550 ± 30 nM; IC50 (MALME-3M): 1800 ± 120 nM; IC50 (IST-MEL-1): 1420 ± 50 nM; IC50 (A375): 1450 ± 140 nM; IC50 (GSTM2-2): ≤ 10 nM

Q: With `Oc1c2ccccc2c2c3c(cccc13)N=N2` [SP600125, reference compound] as the compound, how does the “reduction of the MC3181-elicited increase of caspase-3 activity” value (A375 cells [5]) read?
A: Its value is “about 50%”.

Q: What about the “reduction of the MC3181-elicited increase in the number of cells in Sub-G1 phase” value (A375 cells [6]) of the same compound?
A: The value was “about 40%”.

Q: Which results are given for `Cn1nnc2c(C(N)=O)ncn2c1=O` [TMZ, temozolomide, reference compound]?
A: decrease in BW [7]: ~15%; %ILS (A375 human melanoma; TMZ i.p. 100 mg/kg/d q1dx5): 35%; tumor growth (A375 human melanoma; TMZ i.p. 100 mg/kg/d q1dx5, from day 13 onward, P < 0.05): significantly delayed tumor growth
